# Source: ChEMBL document CHEMBL1201862, “PubChem BioAssay data set” (2004)
# Calls of active or inactive are those of the source.
# Assays:
# [1] = target: Hepatocyte nuclear factor 4-alpha (Homo sapiens, UniProt P41235); assay type: functional, cell-based;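 also: biochemical luminescence-based dose-response counterscreen measuring inhibition of HNF4 dimerization, run alongside a screen for blockers of ABHD5–perilipin-5 interaction; split luciferase complementation of HNF4 fusion proteins in cell lysate measuring dimerization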
# Chain of Hepatocyte nuclear factor 4-alpha (P41235 whole entry, the tested form may be a part): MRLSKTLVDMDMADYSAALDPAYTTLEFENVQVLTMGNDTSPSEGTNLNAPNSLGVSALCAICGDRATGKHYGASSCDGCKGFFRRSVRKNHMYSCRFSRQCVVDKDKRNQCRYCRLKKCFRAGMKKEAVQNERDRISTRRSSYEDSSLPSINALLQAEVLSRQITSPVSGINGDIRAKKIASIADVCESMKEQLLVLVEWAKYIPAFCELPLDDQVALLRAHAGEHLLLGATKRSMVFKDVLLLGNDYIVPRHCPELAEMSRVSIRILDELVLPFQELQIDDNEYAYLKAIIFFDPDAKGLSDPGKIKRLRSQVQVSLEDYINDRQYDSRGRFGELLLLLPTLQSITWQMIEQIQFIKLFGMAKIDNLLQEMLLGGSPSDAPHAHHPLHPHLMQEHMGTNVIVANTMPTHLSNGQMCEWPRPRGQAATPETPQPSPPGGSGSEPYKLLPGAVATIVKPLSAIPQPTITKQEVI
# P388/ADR = experiment: cells; assay type: functional; details: Mus musculus
# SN12K1 = experiment: cells; assay type: functional; details: Homo sapiens
# [2] = Luminescence Cell-Based Dose Confirmation HTS to Identify Inhibitors of Platelet Dense Granule Release. [Related pubchem assays: 1663 (Primary HTS), 1678 (Summary of Project)]; assay type: functional
# P388 = experiment: cells; assay type: functional; details: Mus musculus
# [3] = target: T1, High affinity choline transporter 1 (Homo sapiens, UniProt Q9GZV3); experiment: CHT inhibitors, dose response, cell-based, 10-point CRC, membrane potential dye (AID 588401); assay type: functional;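 also: membrane potential dye fluorescence of choline-evoked depolarization via CHT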
# T1 sequence (Q9GZV3 whole entry): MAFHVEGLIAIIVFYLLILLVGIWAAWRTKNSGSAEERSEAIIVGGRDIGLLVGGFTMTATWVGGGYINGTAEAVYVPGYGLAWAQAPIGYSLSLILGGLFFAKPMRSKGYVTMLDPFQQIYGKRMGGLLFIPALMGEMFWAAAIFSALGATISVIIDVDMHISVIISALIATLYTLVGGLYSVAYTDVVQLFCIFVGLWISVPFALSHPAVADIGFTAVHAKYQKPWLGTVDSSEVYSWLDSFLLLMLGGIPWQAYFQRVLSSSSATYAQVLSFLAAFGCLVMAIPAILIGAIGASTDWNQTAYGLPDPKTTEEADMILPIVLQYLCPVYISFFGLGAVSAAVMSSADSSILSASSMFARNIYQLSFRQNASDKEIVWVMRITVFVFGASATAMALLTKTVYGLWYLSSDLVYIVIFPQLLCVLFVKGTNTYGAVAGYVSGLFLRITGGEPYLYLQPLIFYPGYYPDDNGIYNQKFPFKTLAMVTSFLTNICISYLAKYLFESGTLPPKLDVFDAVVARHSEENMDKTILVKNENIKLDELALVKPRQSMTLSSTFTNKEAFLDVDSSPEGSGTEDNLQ
# [4] = target: T1, High affinity choline transporter 1; experiment: CHT inhibitors, dose response, cell-based, 5-point CRC, membrane potential dye (AID 504840); assay type: functional
# [5] = target: T2, Low molecular weight phosphotyrosine protein phosphatase (Homo sapiens, UniProt P24666); assay type: functional; details: read-out: IC50_Mean
# T2 sequence (P24666 whole entry): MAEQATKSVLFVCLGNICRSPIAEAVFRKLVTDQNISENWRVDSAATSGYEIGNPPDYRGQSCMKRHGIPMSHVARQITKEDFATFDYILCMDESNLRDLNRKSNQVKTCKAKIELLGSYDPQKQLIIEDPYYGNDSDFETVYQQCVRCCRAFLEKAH
# [6] = target: T2, Low molecular weight phosphotyrosine protein phosphatase; assay type: functional; details: read-out: IC50_Mean; remark: listed apart in the source
# Cytochrome P450 1A2 = target: T3, Cytochrome P450 1A2 (Homo sapiens, UniProt P05177);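 also: PubChem cytochrome P450 panel assay, CYP1A2 panel member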
# T3 sequence (P05177 whole entry): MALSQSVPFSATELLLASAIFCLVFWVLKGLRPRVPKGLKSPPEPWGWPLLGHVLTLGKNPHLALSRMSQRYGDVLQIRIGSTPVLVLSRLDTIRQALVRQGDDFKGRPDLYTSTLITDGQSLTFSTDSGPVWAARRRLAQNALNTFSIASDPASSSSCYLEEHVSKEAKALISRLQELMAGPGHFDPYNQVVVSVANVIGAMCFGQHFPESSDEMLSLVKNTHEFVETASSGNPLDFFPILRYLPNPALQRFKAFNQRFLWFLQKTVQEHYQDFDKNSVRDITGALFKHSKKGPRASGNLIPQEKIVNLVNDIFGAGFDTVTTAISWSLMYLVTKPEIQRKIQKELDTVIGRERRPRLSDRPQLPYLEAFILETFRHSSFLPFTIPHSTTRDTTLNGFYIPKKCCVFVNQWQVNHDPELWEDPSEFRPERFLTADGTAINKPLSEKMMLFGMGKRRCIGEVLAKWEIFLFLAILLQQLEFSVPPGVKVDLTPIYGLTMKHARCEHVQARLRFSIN
# [7] = target: T4, Zinc finger protein mex-5 (Caenorhabditis elegans, UniProt Q9XUB2); experiment: MEX-5/TCR-2 RNA interaction inhibitors, dose response, biochemical, C. elegans, fluorescence polarization (AID 1960)
# T4 sequence (Q9XUB2 whole entry): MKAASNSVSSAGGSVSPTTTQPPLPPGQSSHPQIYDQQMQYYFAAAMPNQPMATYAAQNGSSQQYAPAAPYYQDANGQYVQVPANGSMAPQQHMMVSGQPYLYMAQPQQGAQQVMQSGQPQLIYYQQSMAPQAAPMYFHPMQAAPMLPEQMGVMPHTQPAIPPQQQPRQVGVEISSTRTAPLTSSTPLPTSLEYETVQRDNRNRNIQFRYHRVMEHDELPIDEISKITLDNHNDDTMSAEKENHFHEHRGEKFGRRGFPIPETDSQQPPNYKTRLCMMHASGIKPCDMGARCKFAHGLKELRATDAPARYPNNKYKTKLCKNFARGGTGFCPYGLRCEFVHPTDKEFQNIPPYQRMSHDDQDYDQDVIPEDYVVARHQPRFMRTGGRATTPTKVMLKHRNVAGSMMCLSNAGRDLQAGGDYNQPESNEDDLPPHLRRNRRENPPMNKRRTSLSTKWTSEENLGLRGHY
# [8] = target: T5, RNA-binding protein pos-1 (Caenorhabditis elegans, UniProt G5EF15); experiment: inhibitors of POS-1/mex-3 RNA binding, dose response, biochemical, fluorescence polarization (AID 1964);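 also: purified POS-1 fused to maltose binding protein made in E. coli; potency of compounds blocking POS-1 binding to fluorescent RNA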
# T5 sequence (G5EF15 whole entry): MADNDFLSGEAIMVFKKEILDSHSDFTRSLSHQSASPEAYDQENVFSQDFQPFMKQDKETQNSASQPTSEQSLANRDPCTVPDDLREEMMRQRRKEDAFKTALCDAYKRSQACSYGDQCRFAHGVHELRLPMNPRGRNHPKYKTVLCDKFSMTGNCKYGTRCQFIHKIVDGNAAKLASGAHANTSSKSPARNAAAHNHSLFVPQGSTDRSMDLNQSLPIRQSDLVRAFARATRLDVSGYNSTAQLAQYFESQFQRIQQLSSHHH
# Cytochrome P450 2C9 = Cytochrome P450 2C9 (Homo sapiens, UniProt P11712)
# Chain of Cytochrome P450 2C9 (P11712 whole entry): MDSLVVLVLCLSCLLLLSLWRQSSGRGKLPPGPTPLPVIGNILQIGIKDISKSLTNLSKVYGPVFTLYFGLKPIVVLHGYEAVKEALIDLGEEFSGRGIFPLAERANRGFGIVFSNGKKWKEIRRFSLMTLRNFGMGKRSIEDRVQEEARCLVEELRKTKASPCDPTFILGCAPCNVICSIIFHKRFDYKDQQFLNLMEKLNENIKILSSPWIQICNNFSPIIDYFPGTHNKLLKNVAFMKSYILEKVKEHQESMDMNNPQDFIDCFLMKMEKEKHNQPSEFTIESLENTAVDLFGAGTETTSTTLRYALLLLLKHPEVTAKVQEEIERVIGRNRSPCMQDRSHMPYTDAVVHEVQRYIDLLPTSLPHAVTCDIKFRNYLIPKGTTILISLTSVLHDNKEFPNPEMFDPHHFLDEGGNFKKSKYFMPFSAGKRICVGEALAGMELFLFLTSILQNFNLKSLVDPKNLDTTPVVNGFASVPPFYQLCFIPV
# Genome polyprotein = Genome polyprotein (dengue virus type 2, UniProt P29990); experiment: Dengue-2 NS5 methyltransferase inhibitors, primary screen, biochemical, confirmation dose response (AID 588689); assay type: functional
# Chain of Genome polyprotein (P29990 2492-3391 limits assumed): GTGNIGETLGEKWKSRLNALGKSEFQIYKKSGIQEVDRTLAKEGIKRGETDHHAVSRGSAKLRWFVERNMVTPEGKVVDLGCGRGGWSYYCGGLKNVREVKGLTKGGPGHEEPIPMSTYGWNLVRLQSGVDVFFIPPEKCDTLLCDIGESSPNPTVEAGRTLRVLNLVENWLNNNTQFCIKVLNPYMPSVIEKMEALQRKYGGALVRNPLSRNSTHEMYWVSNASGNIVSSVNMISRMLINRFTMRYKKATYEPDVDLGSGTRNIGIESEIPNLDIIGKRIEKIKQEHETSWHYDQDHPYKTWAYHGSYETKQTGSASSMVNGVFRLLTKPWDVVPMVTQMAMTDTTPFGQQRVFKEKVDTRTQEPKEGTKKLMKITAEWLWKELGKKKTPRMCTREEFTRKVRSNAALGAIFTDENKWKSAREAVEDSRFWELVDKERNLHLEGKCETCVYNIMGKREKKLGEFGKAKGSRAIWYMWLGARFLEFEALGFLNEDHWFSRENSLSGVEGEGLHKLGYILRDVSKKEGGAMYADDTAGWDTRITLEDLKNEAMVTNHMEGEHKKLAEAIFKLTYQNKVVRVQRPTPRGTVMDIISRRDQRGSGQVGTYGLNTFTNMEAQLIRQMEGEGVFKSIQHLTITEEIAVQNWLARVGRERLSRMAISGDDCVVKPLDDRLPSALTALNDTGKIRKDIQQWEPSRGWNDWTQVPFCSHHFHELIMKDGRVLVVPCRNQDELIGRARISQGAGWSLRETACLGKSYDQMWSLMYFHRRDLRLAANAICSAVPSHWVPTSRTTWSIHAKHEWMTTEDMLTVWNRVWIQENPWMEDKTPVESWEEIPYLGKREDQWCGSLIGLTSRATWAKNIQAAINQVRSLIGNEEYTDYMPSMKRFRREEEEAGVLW
# Vero = Vero cell cytotoxicity, cytotoxicity control for flavivirus capping enzyme inhibitors (AID 588742); assay type: functional; details: Chlorocebus sabaeus
# [9] = target: T6, Calpain-2 catalytic subunit (Sus scrofa, UniProt P43367); experiment: pig calpain II inhibitor potency, dose response, biochemical, fluorogenic peptide substrate (AID 1420); assay type: functional
# T6 sequence (P43367 whole entry): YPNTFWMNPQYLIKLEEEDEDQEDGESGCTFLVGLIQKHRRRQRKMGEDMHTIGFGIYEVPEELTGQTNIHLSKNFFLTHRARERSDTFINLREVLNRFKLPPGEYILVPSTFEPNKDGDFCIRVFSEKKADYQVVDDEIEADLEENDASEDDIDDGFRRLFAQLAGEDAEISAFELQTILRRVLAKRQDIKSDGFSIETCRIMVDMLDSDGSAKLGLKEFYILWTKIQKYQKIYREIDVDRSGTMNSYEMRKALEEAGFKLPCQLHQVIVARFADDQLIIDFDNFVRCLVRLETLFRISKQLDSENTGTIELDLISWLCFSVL
# [10] = target: Photoreceptor-specific nuclear receptor (Homo sapiens, UniProt Q9Y5X4); assay type: functional, cell-based;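 also: CHO-S cells with Gal4-NCOR and VP16-NR2E3 two-hybrid luciferase reporter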
# Chain of Photoreceptor-specific nuclear receptor (Q9Y5X4 whole entry, the tested form may be a part): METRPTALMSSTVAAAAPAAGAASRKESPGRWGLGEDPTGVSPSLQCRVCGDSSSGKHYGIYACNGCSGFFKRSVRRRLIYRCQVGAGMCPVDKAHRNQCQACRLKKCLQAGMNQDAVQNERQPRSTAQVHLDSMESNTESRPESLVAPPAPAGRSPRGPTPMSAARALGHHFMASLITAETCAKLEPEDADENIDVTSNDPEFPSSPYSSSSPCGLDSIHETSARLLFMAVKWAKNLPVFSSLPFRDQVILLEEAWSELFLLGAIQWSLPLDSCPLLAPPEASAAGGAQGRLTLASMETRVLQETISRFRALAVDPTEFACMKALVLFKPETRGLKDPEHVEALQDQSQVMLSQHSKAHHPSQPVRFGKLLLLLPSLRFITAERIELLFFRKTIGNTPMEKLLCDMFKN
# Fatty acid synthase [11] = target: T7, Fatty acid synthase (Homo sapiens, UniProt P49327); experiment: FAS thioesterase domain inhibitors, dose response, biochemical, kinetic fluorescence intensity (AID 624326); assay type: functional;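 also: rate of fluorescence rise from hydrolysis of a fluorogenic O-methyl fluorescein ester substrate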
# T7 sequence (P49327 whole entry, the tested form may be a part): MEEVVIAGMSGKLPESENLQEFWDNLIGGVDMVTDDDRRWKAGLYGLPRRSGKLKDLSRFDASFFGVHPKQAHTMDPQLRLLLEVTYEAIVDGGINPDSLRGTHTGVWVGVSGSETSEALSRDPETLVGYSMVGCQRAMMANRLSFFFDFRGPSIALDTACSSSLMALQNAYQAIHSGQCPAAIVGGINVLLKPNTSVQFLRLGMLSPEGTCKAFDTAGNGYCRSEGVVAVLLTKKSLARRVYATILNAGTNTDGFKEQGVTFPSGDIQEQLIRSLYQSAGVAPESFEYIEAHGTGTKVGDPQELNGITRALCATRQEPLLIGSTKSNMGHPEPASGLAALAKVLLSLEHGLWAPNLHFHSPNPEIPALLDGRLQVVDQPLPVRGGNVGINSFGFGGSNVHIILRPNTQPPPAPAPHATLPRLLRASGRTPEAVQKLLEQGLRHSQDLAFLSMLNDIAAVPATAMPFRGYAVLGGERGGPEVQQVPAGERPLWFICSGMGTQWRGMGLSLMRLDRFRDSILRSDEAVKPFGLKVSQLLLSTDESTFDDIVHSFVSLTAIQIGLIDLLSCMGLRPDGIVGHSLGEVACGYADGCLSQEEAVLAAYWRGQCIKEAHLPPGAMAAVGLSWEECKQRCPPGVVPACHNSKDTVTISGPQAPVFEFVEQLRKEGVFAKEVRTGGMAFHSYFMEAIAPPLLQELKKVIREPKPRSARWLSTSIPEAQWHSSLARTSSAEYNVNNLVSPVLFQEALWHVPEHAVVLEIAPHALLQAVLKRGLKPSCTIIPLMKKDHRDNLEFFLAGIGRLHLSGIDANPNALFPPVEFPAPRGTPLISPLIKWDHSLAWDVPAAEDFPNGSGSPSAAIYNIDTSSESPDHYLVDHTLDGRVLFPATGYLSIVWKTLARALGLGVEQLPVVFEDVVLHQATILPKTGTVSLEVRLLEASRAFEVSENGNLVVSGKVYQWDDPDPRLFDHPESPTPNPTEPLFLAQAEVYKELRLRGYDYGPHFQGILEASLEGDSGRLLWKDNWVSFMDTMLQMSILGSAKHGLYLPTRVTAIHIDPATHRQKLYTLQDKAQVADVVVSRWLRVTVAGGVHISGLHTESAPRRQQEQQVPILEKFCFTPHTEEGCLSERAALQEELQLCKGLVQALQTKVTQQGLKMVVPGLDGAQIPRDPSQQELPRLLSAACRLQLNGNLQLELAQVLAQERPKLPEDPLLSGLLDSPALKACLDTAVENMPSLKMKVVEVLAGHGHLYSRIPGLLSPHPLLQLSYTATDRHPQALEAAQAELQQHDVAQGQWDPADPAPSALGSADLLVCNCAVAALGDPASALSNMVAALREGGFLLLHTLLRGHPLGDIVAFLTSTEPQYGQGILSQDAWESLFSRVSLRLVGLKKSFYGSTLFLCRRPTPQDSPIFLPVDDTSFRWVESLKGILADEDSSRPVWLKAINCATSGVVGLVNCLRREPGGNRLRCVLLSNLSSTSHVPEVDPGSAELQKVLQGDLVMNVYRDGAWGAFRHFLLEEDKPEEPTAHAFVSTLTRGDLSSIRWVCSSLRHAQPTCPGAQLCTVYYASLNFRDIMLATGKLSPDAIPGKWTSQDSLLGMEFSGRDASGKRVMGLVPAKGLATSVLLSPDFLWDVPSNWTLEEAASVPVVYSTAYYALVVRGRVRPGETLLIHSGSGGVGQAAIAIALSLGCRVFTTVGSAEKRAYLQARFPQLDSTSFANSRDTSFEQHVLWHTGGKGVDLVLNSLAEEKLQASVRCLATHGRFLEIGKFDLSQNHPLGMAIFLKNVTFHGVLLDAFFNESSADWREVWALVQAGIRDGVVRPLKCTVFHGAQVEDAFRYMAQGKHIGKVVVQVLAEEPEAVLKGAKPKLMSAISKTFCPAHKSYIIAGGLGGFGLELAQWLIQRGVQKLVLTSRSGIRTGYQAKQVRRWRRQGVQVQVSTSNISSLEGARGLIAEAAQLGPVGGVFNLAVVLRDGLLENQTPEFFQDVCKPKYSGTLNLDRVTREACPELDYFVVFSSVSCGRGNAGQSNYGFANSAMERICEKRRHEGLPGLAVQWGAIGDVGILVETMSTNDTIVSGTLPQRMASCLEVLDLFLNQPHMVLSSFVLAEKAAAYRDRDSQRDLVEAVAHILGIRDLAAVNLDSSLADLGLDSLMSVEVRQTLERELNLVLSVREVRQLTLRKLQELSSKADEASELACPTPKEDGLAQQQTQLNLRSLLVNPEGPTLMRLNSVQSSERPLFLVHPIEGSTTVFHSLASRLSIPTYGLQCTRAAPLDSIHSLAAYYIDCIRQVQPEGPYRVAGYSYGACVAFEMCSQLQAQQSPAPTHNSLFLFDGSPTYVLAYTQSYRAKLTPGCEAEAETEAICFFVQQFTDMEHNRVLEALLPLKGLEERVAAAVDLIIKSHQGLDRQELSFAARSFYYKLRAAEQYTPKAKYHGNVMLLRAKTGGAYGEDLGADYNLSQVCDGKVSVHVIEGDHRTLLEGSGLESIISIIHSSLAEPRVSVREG
# Fatty acid synthase [12] = target: T7, Fatty acid synthase; experiment: FAS thioesterase domain inhibitors, dose response, biochemical, endpoint fluorescence intensity, uHTS hits (AID 624327); assay type: functional;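 also: fluorescence from hydrolysis of an O-methyl fluorescein acyl ester substrate by the enzyme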
# [13] = Fluorescence-based cell-based high throughput dose response assay for inhibitors of the interaction of nucleotide-binding oligomerization domain containing 2 (NOD2) and the receptor-interacting serine-threonine kinase 2 (RIPK2).; assay type: functional, Homo sapiens; details: Homo sapiens
# Beta Lactamase = Beta Lactamase (Pseudomonas aeruginosa, UniProt Q932Y6); experiment: beta-lactamase reporter inhibitor potency, dose response, artefact control for NOD2-RIPK2 interaction inhibitor project, BLA reporter cells, FRET fluorescence (AID 651552); assay type: functional, cell-based
# Chain of Beta Lactamase (Q932Y6 whole entry): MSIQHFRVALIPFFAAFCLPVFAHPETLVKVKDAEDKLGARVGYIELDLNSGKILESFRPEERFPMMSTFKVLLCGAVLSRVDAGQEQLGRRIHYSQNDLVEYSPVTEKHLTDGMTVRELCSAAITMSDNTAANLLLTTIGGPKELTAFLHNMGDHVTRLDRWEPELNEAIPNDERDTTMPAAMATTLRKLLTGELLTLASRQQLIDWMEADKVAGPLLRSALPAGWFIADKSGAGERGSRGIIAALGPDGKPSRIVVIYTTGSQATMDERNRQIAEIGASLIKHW
# [14] = target: T8, Short transient receptor potential channel 4 (Mus musculus, UniProt Q9QUQ5); experiment: mouse TRPC4 channel inhibitors, dose response, cell-based, HEK293 TRPC4/mu-opioid, Fluo-4 calcium (AID 434942); assay type: functional;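 also: potency of inhibitors blocking the TRPC4 calcium response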
# T8 sequence (Q9QUQ5 whole entry): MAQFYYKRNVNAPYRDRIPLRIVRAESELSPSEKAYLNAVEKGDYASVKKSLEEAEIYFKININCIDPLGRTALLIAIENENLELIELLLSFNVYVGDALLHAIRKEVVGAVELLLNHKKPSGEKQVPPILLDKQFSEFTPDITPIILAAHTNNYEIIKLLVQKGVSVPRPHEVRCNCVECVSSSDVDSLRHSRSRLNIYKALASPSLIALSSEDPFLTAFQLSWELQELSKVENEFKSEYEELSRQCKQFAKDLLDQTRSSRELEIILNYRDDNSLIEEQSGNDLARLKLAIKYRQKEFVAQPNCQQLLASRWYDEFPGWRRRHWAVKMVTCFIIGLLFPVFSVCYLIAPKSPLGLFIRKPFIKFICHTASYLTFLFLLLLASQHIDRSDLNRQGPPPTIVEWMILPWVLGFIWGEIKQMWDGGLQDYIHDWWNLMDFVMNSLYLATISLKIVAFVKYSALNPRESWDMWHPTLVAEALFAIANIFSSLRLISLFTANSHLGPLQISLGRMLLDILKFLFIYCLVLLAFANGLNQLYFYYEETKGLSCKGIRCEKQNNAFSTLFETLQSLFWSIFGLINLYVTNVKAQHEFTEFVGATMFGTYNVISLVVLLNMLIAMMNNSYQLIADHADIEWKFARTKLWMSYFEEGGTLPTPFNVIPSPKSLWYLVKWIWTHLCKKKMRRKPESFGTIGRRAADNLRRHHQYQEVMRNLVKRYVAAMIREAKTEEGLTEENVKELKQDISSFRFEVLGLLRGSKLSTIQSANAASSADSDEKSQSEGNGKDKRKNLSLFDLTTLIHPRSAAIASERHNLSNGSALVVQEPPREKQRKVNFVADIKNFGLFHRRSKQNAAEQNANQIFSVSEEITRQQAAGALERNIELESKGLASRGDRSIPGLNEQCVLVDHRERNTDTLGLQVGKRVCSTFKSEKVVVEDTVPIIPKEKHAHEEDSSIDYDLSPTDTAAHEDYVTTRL
# [15] = target: Ras and Rab interactor 1/Tyrosine-protein kinase ABL1 (Homo sapiens, UniProt P00519+Q13671); assay type: functional;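 also: biochemical TR-FRET dose-response test measuring inhibition of binding between Rin1 and Abl proteins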
# [16] = cytotoxicity in MIN6 insulinoma cells, dose response, cytotoxicity control, cell-based, mouse insulinoma (AID 2122); assay type: functional;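 also: confirmatory high-throughput counterscreen run to flag cytotoxic compounds; mouse MIN-6 beta cells carrying an insulin promoter eGFP reporter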
# INS1 = experiment: beta cell apoptosis inhibitors, cytokine rescue, dose response, luminescence, retest (AID 449756); assay type: functional, cell-based; details: Rattus norvegicus;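 also: cell death triggered by IL-1 beta plus TNF-alpha plus IFN-gamma mixture; protective hits raise ATP signal compared with cytokine alone wells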
# [17] = insulin promoter down-regulators in MIN6 cells, imaging, high-content screening, mouse beta cells (AID 1628); assay type: functional
smiles,measurement,setting,value
CC(C)(C)NC(=O)C(C1CC1)n1c(=O)c(-c2ccco2)nc2ccccc21 (stereo not given),IC50,[1],1.72 µM (active)
Nc1ncnc2c1ncn2C1OC(CO)C(O)C1O (stereo not given),GI50,P388/ADR,14.5 µM (inactive)
same,GI50,SN12K1,> 74 µM (inactive)
same,EC50,[2],1.55 µM (active)
same,GI50,P388,16.4 µM (inactive)
same,IC50,[3],0.515 µM (active)
same,IC50,[4],0.588 µM (active)
COc1cccc(Nc2c(Nc3cccc(OC)c3)c(=O)c2=O)c1,IC50,[5],10.4 µM (active)
same,IC50,[6],18.4 µM (active)
CN(C)c1nc(N)nc(/C(C#N)=C/C2CC3C=CC2C3)n1 (stereo not given),IC50,[5],25.2 µM (inactive)
same,IC50,[6],10.6 µM (active)
COc1cc(/C=N\Nc2ccc([N+](=O)[O-])cc2)ccc1OCC(=O)Nc1ccc(C)c(C)c1,AC50,Cytochrome P450 1A2,7.08 µM (inconclusive)
same,EC50,[7],234 µM (inconclusive)
same,EC50,[8],> 300 µM (not active)
same,AC50,Cytochrome P450 2C9,3.16 µM (inconclusive)
same,IC50,Genome polyprotein,26.3 µM (active)
same,CC50,Vero,> 40 µM (active)
O=c1c(Cl)c(N2CCN(c3ccc(F)cc3)CC2)cnn1C12CC3CC(CC(C3)C1)C2,IC50,[9],> 50 µM (not active)
same,IC50,[10],1.93 µM (active)
CN1CCN(c2oc(Cc3cccc4ccccc34)nc2C#N)CC1,IC50,[3],4.74 µM (active)
same,IC50,[4],1.66 µM (active)
CCOC(=O)[C@]12Cc3cc(Cl)ccc3[C@H]1N(C1CCCCC1)C(=O)c1ccccc12,IC50,Fatty acid synthase [11],4.57 µM (active)
same,IC50,Fatty acid synthase [12],6.4 µM (active)
same,IC50,[13],1.45 µM (active)
same,IC50,Beta Lactamase,19.9 µM (inactive)
CC1CCCCN1CCCNC(=O)c1nn(C)c2c1CSc1ccccc1-2 (stereo not given),EC50,[14],4.22 µM (active)
same,IC50,[3],10.6 µM (active)
same,IC50,[4],5.6 µM (active)
COc1ccc(CCNC(=O)CSc2nc(C)nc3c2c(=O)n(C)c(=O)n3C)cc1OC,IC50,[15],13.9 µM (inactive)
Cc1cc(N2CCN(C)CC2)ccc1NC(=O)c1c2c(nc3ccccc13)CCN(Cc1ccccc1)C2,IC50,[16],1.05 µM (active)
same,AC50,INS1,4.71 µM (active)
same,IC50,[17],1.37 µM (active)
same,IC50,[13],11 µM (inactive)
same,IC50,Beta Lactamase,12.3 µM (inactive)
CCCCCc1c(-c2ccc(OC)c(OC)c2)ncn1CCc1ccccc1OC,IC50,[10],7.43 µM (active)
